Source: patent US20260364073A1, “MAVACAMTEN AND DERIVATIVES THEREOF FOR USE IN TREATING ATRIAL DYSFUNCTION” (MyoKardia, Inc., priority 2022, published 2026)

Assays:
[1] = molecular target: T1, bovine cardiac synthetic myosin filaments (Bos taurus, UniProt Q9BE39); assay: DRX and SRX ATPase rates in bovine cardiac synthetic myosin filaments; format: biochemical; conditions: role: inhibitor, range of concentrations (FIG. 5), Compound A compared with mavacamten
T1 construct: single-turnover ATPase (DRX/SRX)
T1 sequence (Q9BE39 whole entry): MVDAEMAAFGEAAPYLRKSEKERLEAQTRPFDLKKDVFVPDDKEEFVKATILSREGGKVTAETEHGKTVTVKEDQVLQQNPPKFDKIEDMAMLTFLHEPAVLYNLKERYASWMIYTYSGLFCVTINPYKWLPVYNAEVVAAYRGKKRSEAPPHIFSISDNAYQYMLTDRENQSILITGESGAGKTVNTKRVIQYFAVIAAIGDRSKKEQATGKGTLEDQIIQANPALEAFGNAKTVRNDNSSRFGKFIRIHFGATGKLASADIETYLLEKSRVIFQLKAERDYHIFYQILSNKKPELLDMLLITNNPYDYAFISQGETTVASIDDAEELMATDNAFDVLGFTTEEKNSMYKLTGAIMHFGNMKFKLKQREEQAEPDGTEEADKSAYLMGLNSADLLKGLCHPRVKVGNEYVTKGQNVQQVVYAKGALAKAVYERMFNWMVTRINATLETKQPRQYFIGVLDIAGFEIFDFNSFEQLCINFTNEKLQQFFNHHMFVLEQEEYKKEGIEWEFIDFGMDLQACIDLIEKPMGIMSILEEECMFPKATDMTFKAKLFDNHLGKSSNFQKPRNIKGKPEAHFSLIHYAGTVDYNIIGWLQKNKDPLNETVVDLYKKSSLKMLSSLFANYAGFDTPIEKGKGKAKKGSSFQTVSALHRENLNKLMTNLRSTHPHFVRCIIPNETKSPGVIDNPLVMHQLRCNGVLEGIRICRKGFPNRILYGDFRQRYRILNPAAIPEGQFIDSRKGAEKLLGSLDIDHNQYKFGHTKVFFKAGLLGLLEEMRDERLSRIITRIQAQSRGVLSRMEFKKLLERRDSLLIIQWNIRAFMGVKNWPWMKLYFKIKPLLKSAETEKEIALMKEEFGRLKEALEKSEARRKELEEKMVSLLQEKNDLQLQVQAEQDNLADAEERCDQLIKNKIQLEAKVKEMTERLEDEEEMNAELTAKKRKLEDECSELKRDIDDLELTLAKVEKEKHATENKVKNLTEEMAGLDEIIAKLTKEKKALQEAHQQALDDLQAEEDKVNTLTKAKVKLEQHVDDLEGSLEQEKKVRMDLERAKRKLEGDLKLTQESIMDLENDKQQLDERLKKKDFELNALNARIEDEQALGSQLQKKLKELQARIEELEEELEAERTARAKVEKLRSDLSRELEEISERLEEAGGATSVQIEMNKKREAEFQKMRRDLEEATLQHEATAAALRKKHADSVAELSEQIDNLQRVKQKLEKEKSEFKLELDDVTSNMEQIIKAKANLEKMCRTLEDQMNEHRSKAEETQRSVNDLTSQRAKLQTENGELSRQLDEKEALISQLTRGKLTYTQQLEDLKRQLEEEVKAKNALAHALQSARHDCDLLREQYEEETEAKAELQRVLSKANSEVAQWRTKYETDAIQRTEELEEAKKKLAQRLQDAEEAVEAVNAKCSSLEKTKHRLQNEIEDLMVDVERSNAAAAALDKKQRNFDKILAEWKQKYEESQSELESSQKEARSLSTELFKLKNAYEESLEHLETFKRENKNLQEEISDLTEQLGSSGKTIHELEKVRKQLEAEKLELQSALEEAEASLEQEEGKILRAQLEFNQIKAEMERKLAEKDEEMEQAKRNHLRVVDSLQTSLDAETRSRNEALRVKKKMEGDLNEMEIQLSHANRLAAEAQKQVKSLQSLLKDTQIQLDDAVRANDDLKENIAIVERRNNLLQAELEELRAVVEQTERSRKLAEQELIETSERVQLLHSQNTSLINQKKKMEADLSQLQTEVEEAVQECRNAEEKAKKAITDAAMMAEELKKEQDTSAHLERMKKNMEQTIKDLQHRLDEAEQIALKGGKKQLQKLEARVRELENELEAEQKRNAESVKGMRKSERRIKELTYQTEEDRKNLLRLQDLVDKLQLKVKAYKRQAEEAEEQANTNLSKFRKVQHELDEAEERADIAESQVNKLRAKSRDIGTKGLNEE
T1 sequence (P85100 whole entry partner): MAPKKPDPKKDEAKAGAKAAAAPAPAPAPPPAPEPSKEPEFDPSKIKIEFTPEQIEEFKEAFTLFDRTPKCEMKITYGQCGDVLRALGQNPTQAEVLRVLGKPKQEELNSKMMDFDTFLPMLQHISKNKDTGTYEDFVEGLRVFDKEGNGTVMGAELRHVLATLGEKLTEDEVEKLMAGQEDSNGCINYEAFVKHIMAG
T1 sequence (Q3SZE5 whole entry partner): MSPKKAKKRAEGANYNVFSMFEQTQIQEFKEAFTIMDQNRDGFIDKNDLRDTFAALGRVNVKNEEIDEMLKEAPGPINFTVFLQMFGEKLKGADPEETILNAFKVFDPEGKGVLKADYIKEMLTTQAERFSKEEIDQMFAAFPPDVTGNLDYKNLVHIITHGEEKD

α-MHC / β-MHC in the LA = assay: LA myosin isoform content (α-MHC to β-MHC conversion) in HCM pigs; format: in vivo, Yucatan mini-pigs; conditions: HCM pigs (FIG. 3), in comparison to untreated HCM pig controls
From the text: (§1) FIG. 1 is a schematic diagram showing the design for an experiment on the chronic effects of Compound A on HCM and on left atrial and left ventricular geometry and function in a mini-pig model of inherited HCM (“HCM pigs”). Compound A dose is increased over the first 12 weeks of the study to account for weight gain. CMPD A: Compound A. CTRL: control. cMR: cardiac MRI. PV: LV pressure and volume studies (invasive hemodynamics). RNA: LV gene expression studies. HIST: histology. BIO: LV/LA fiber biomechanical studies.
FIG. 3 is a set of graphs showing the effects of Compound A on left atrial (LA) geometry and function in HCM pigs.
(§2) Young (~1 month) cloned Yucatan mini-pigs with a heterozygous MYH7 R403Q mutation (“HCM pigs”) were treated and evaluated as shown in FIG. 1. The pigs were randomly assigned to one of two arms: untreated controls (CTRL, n=29) or daily Compound A (n=22; PO); untreated wild-type pigs (WT) served as […]. The pigs treated with Compound A were divided into two cohorts: A and B. Treated animals received progressively increasing Compound A doses (5, 7.5, 10, and 15 mg/day PO) to account for weight gain. After 14 weeks of treatment, pigs underwent in vivo cardiac MRI (cMR) imaging, including T1 mapping and extracellular volume (ECV) assessments. […]

[2] = tested on: HCM pigs (heterozygous MYH7 R403Q mutation); assay: Chronic Compound A treatment in mini-pig model of inherited HCM: mortality, cTnT, cardiac MRI; format: in vivo, Yucatan mini-pigs; conditions: chronic treatment PO
From the text: as §1
This Example describes an in vivo study that evaluates the chronic effects of Compound A, in a genetic large-animal model of HCM.
as §2

SMILES	disordered relaxed state (DRX) ATPase rate (as a fraction of control) [1]	super-relaxed state (SRX) ATPase rate (as a fraction of control) [1]	conversion of α-MHC to β-MHC in the LA (α-MHC / β-MHC in the LA)	left atrial remodeling [2]
CC(C)n1c(=O)cc(N[C@@H](C)c2cccc(F)c2)[nH]c1=O [Compound A]	similar	similar	prevented the conversion of α-MHC to β-MHC in the LA	prevented left atrial remodeling
CC(C)n1c(=O)cc(N[C@@H](C)c2ccccc2)[nH]c1=O [mavacamten]	similar	similar		
